From patent US9624269B2, “Peptide inhibitors of BACE1” (GENENTECH, INC., priority 2011, dated 2017) come the findings set out here.

Positions of bridges follow the written chain, without caps; N, C: chain ends. Residues, ends and D or L forms follow the SMILES beside them.

Test [1] has as its target T1, human BACE1 (rhBACE1) (Homo sapiens, UniProt P56817). In words: BACE1 fluorescence polarization (FP) competition binding assay with 5-TAMRA-BACE020 probe. The conditions noted are these: competition with 3 nM 5-TAMRA-BACE020, 12 nM rhBACE1, pH 4.4. The procedure: BACE1 Fluorescence Polarization Competition Binding Assay.
BACE1 binding assays were carried out in a final volume of 10 μL per well in black 384-well microplates (Proxiplate-Plus; Perkin Elmer, Waltham, Mass.). A standard binding reaction, initiated by the addition of 5 μL 2× enzyme to 2.5 μL of 4× binding probe and […] of 4× inhibitor, contained 12 nM rhBACE1, 3 nM 5-TAMRA-[…] (SEQ ID NO: 16) (5-TAMRA-BACE020), 50 mM NaOAc, pH 4.4 with 0.1% CHAPS. The reaction was permitted to proceed towards equilibrium for 2 h at ambient temperature prior to fluorescence polarization measurement using Envision (Perkin Elmer). The parallel and perpendicular fluorescent emissions measured in each well at 595 nm (excitation 531 nm polarized light) were used to determine the milli-polarization level (mP) using the following formula: mP=1000*(S-G*P)/(S+G*P) where S=parallel emission, P=perpendicular emission and G=0.65. The mP value in each well was plotted as a function of inhibitor concentration and the 50% inhibition (IC50) values were determined using a nonlinear least squares fit of the data to a four parameter equation using Prism 5.0 software (GraphPad Software, San Diego, Calif.). 5-TAMRA-labeled BACE020 was purchased from American Peptide Company, Inc (Sunnyvale, Calif.) and solubilized in DMSO to 100 mM for storage.
The affinities of BACE1 peptide ligands were measured using the abovementioned competition binding FP assay for determining IC50 values with serially diluted peptides. A Caliper assay was used to measure the inhibition of BACE1 enzymatic activity by peptide ligands. […] Furthermore, the IC50 values measured by the Caliper assay for peptides BACE017-021 and BACE025-028 are consistent with those measured by the HTRF assay.
A general note: Fluorescence polarisation rises when a labelled molecule tumbles more slowly, as on binding a larger partner.
Target sequence in this assay (P56817 46-501): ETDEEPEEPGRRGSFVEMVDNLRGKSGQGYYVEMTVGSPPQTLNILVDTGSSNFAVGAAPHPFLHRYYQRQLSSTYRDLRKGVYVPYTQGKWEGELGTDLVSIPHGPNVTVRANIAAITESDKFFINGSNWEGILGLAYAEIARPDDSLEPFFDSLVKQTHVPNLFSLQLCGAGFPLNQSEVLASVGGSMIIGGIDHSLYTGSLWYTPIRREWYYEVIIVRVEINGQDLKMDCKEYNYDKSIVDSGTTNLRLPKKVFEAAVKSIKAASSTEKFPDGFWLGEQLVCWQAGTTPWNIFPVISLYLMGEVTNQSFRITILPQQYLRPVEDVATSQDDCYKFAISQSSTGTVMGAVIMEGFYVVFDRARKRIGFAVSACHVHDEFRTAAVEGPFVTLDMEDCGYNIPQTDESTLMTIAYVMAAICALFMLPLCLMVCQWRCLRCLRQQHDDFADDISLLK

For test [2], the target named is T1, human BACE1 (rhBACE1). Briefly: Caliper BACE1 activity assay (microfluidic capillary electrophoresis). Set-up: containing human BACE1 (extracellular domain). The following applies: 12 nM rhBACE1, 1 μM FAM-substrate, pH 4.4. Format: biochemical. As to the method: An MCE assay reactions can be carried out in a standard enzymatic reaction, initiated by the addition of substrate to enzyme and 4× compound, containing human BACE1 (extracellular domain), amyloid precursor protein beta secretase active site peptide (FAM-[…]-CONH2 (SEQ ID NO: 20)), 50 mM NaOAc pH 4.4 and 0.1% CHAPS. After incubation for 60 minutes at ambient temperature, the product and substrate in each reaction is separated using a 12-sipper microfluidic chip analyzed on an LC3000® (both, Caliper Life Sciences). The separation of product and substrate is optimized by choosing voltages and pressure using the manufacturer's optimization software. Substrate conversion is calculated from the electrophoregram using HTS Well Analyzer software (Caliper Life Sciences).
BACE1, BACE2 and Cathepsin D Activity Assay Using Microfluidic Capillary Electrophoresis (MCE).
BACE1, BACE2, and Cathepsin D reactions were carried out in a final volume of 20 μl per well in a 384-well microplate using a Caliper LabChip 3000 (Hopkinton, Mass.). A standard enzymatic reaction, initiated by the addition of 10 μ12× substrate to 5 μl of 4× enzyme and 5 μl of 4× peptide or small molecule inhibitor, contained 12 nM rhBACE1, 1 μM FAM-[…]-amide (SEQ ID NO: 20), 50 mM NaOAc, pH 4.4, 0.1% CHAPS. The same reaction conditions were used for rhBACE2 (5 nM) and Cathepsin D (6 nM) (Cat. No. 219394; EMD Biosciences, San Diego, Calif.). After incubation for 60 min at room temperature, the product and substrate in each reaction were separated using a 12-sipper microfluidic chip. Separation of product and substrate was optimized by choosing voltages and pressure using the Caliper Optimizer software. The separation buffer contained 100 mM HEPES, pH 7.2, 0.015% Brij-35, 0.1% Coating Reagent #3, 10 mM EDTA and 5% DMSO. The separation conditions used a downstream voltage of −500 V, an upstream voltage of −2250 V, and a screening pressure of −1.2 psi. The product and substrate fluorescence was excited at 488 nm and detected at 530 nm. Substrate conversion was calculated from the electrophoregram using the Caliper HTS Well Analyzer software.
Target sequence in this assay (P56817 46-457 limits assumed): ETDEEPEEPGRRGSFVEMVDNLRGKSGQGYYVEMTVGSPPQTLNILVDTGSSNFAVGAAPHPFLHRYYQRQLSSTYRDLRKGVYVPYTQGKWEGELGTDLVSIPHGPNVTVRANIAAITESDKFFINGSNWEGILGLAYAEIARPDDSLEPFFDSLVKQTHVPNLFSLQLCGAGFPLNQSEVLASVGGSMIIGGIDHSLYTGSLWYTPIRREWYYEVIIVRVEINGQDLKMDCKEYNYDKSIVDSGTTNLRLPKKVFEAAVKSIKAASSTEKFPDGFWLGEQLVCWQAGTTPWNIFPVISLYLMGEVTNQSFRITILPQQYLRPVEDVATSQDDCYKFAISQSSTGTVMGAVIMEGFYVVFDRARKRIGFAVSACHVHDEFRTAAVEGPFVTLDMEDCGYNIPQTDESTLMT

In general, IC50 refers to the point on the concentration scale where inhibition reaches its midpoint. The low end stands for inhibition by little substance, the high end for a need for much substance.

At human BACE1 (rhBACE1) [1], `CC[C@H](C)[C@H](NC(=O)[C@H](Cc1ccccc1)NC(=O)[C@H](Cc1ccc(O)cc1)NC(=O)[C@@H]1CCCN1C(=O)[C@H](Cc1ccc(O)cc1)NC(C)=O)C(=O)N1CCC[C@H]1C(=O)N[C@@H](CC(C)C)C(N)=O` [BMS4, reference compound] returned an IC50 of more than 10 µM.
On to `CC[C@H](C)[C@@H]1NC(=O)CNC(=O)[C@H](CC(C)C)NC(=O)[C@H](CC(C)C)NC(=O)[C@H](CCCNC(=N)N)NC(=O)[C@@H](NC(=O)[C@H](Cc2ccc(O)cc2)NC(=O)[C@H](CCSC)NC(=O)[C@H](CO)NC(=O)[C@H](CCC(=O)O)NC(=O)[C@H](CCC(=O)O)NC(=O)[C@H](CC(N)=O)NC(C)=O)CSSC[C@@H](C(=O)N[C@@H](C)C(N)=O)NC(=O)CNC1=O` [BACE054] (Ac-NEESMYCRLLGIGCA-NH2; disulfide 7-14), for which the IC50 on human BACE1 (rhBACE1) [1] turned out to be 0.012 ± 0.003 µM; against human BACE1 (rhBACE1) [2] it was 0.007 ± 0.004 µM.
For `CC[C@H](C)[C@@H]1NC(=O)CNC(=O)[C@H](CC(C)C)NC(=O)[C@H](CC(C)C)NC(=O)[C@H](C)NC(=O)[C@@H](NC(=O)[C@H](Cc2ccc(O)cc2)NC(=O)[C@H](CCSC)NC(=O)[C@H](CO)NC(=O)[C@H](CCC(=O)O)NC(C)=O)CSSC[C@@H](C(=O)NCC(N)=O)NC(=O)CNC1=O` [BACE057] (Ac-ESMYCALLGIGCG-NH2; disulfide 5-12) the same measures were more than 10 µM and more than 10 µM.
Taken in the same sequence, the figures for `CC[C@H](C)[C@@H]1NC(=O)CNC(=O)[C@H](CC(C)C)NC(=O)[C@H](CC(C)C)NC(=O)[C@H](CCCNC(=N)N)NC(=O)[C@@H](NC(=O)[C@H](Cc2ccc(O)cc2)NC(=O)[C@H](CCSC)NC(=O)[C@H](CO)NC(=O)[C@H](CCC(=O)O)NC(=O)[C@H](CCC(=O)O)NC(C)=O)CSSC[C@@H](C(=O)NCC(N)=O)NC(=O)CNC1=O` [BACE029] (Ac-EESMYCRLLGIGCG-NH2; disulfide 6-13) were 0.012 µM and 0.013 ± 0.008 µM.
For `CC[C@H](C)[C@@H]1NC(=O)CNC(=O)[C@H](CC(C)C)NC(=O)[C@H](CC(C)C)NC(=O)[C@H](C)NC(=O)[C@@H](NC(=O)[C@H](Cc2ccc(O)cc2)NC(=O)[C@H](CCSC)NC(=O)[C@H](CO)NC(=O)[C@H](CCC(=O)O)NC(=O)[C@H](CCC(=O)O)NC(=O)[C@H](CC(N)=O)NC(C)=O)CSSC[C@@H](C(=O)NCC(N)=O)NC(=O)CNC1=O` [BACE048] (Ac-NEESMYCALLGIGCG-NH2; disulfide 7-14) the same measures were more than 10 µM and more than 10 µM.
Molecule `CC[C@H](C)[C@@H]1NC(=O)CNC(=O)[C@H](CC(C)C)NC(=O)[C@H](CC(C)C)NC(=O)[C@H](CCCNC(=N)N)NC(=O)[C@@H](NC(C)=O)CSSC[C@@H](C(=O)NCC(N)=O)NC(=O)CNC1=O` [BACE034] (Ac-CRLLGIGCG-NH2; disulfide 1-8) registered an IC50 on human BACE1 (rhBACE1) [1] of more than 10 µM.
Turning to Ac-PEESLYSRLLALGSG-NH2 [BACE028], the IC50 at human BACE1 (rhBACE1) [1] and against human BACE1 (rhBACE1) [2] was more than 10 µM in each case.
On to Ac-KEESIYSRLMGLGSG-NH2 [BACE025], for which the IC50 at human BACE1 (rhBACE1) [1] and against human BACE1 (rhBACE1) [2] was not below 10 µM throughout.
Take `CC[C@H](C)[C@@H]1NC(=O)CNC(=O)[C@H](CC(C)C)NC(=O)[C@H](CC(C)C)NC(=O)[C@H](CCCNC(=N)N)NC(=O)[C@@H](NC(=O)[C@H](Cc2ccc(O)cc2)NC(=O)[C@H](CCSC)NC(C)=O)CSSC[C@@H](C(=O)NCC(N)=O)NC(=O)CNC1=O` [BACE032] (Ac-MYCRLLGIGCG-NH2; disulfide 3-10): the IC50 at human BACE1 (rhBACE1) [1] was more than 10 µM.
The same measure, in the same setting: the result for `CC[C@H](C)[C@@H]1NC(=O)CNC(=O)[C@H](CC(C)C)NC(=O)[C@H](CC(C)C)NC(=O)[C@H](CCCNC(=N)N)NC(=O)[C@@H](NC(=O)[C@H](Cc2ccc(O)cc2)NC(C)=O)CSSC[C@@H](C(=O)NCC(N)=O)NC(=O)CNC1=O` [BACE033] (Ac-YCRLLGIGCG-NH2; disulfide 2-9) reads more than 10 µM.
